Literature values as cited in US20070293700A1, “Process for the Preparation of Gabapentin” (Zambon Group S.P.A., priority 2004, published 2007).
Where two headings read alike, the source gives them in different places.

Legend:
[1] = pH at which the isoelectric point is reached

SMILES: NCC1(CC(=O)O)CCCCC1 [gabapentin, 1-(aminomethyl)-cyclohexaneacetic acid]
- isoelectric point (pH) [1]: 7.14
- solubility in water (0° C.): about 8.5%
- solubility in water (temperature of 20° C.): ~11%
